# Data reported in patent publication US12304912B2, “Fused bicyclic RAF inhibitors and methods for use thereof” (Jazz Pharmaceuticals Ireland Limited, priority 2020, dated 2025).
# Where two headings read alike, the source gives them in different places.
# Experiments:
# FeSSIF solubility assay = format: physicochemical; conditions: pH 5 acetate buffer, 37° C.; for solubility thermodynamic at 24 h: fed state simulated intestinal fluid (FeSSIF), thermodynamic from solid
# Procedure, shortened: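 FeSSIF (pH 5 acetate buffer, 1 mL) was added to 1.0 mg solid compound and shaken at 650 rpm and 37 °C for 24 h. After filtration, dissolved compound was quantified by LC-UV against a 250 μM calibration standard.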
# HCT-116 cells = assay: HCT-116 CellTiter-Glo 3D cell proliferation assay; format: cell-based; conditions: Homo sapiens
# Description: HCT-116 CellTiter-Glo 3D Cell Proliferation Assay
# The human HCT-116 colorectal carcinoma cell line (ATCC CCL-247) endogenously expresses the KRAS^G13D mutation, which leads to enhanced survival and proliferative signaling. […] On the first day, HCT-116 cells were harvested, resuspended in growth medium (McCoys5A with Glutamax (Life Technologies 36600021) with 10% heat-inactivated fetal bovine serum (Sigma F9665)), and counted. Cells were plated in 100 μl per well in each well of a Corning 7007 96-well clear round bottom Ultra-Low Attachment plate (VWR 444-1020) to a final density of 1000 cells per well. Cells were seeded for pre- and post-treatment readouts. The cells were then incubated at 37° C. and 5% CO2 for 3 days (72 hours) to allow spheroid formation. After 72 hours, the plate seeded for a pre-treatment read was removed from the incubator to allow equilibration to room temperature for 30 minutes, before CellTitre-Glo® reagent was added to each well. The plates were incubated at room temperature for 5 minutes shaking at 300 rpm, followed by an incubation of 25 minutes on the benchtop before being read on the Envision reader (Perkin Elmer) as described below. On the same day, the cells plated for the post-treatment readout were dosed with compounds to produce a 9-point dose response, where the top concentration was 15 μM and following concentrations were at 1/2 log dilution intervals. These cells were subsequently incubated at 37° C. and 5% CO2 for another 4 days (96 hours). After 4 days, the plate was removed from the incubator to allow equilibration to room temperature for 30 minutes and treated with CellTitre Glo® reagent as stated above. […] The CellTitre Glo® reagent lyses the cells and contains luciferin and a luciferase (Ultra-Glo™ Recombinant Luciferase), which in the presence of ATP and oxygen can produce bioluminescence from luciferin. Therefore, plates were read on an EnVision reader (Perkin Elmer) and luminescence signals were recorded. Cell proliferation was determined on 4 days after dosing relative to the pre-treatment read. All data were analyzed using the Dotmatics or GraphPad Prism software packages. Inhibition of proliferation was assessed by determination of the GI50 value, which was defined as the concentration of compound required to decrease the level of cell proliferation by 50% when compared to DMSO control.
# WiDr cells = assay: WiDr CellTiter-Glo 3D cell proliferation assay; format: cell-based; conditions: Homo sapiens, read-out: 3D WiDr pGI50 (converted)
# [1] = tested on: constitutive ERK phosphorylation in HCT-116 cells; assay: HCT-116 AlphaLISA SureFire pERK1/2 cellular assay; format: cell-based, human; conditions: for IC50: Homo sapiens, read-out: pERK HCT116 (2 hr) Abs pIC50 (converted)
# Procedure, shortened: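 Cells seeded overnight (30,000/well for 2 h, 15,000/well for 24 h), then dosed in 1% FBS medium with a 10-point series from 1 μM top, 1/3 log steps, for 2 or 24 h at 37 °C. Lysates read by AlphaLISA for Thr202/Tyr204 pERK1/2; absolute IC50 versus DMSO control.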
# [2] = HCT-116, HCT116 cells, 3D proliferation, read-out: 3D HCT116 pGI50 (converted)
# [3] = HCT-116, HCT116 cells, 2 hr, Abs
SMILES,solubility thermodynamic at 24 h (FeSSIF solubility assay; read-out: FESSIF Sol) [µg/mL],GI50 (HCT-116 cells; [2]) [nM],"GI50 (WiDr cells; WiDr cells, 3D proliferation) [nM]","IC50 [1, 3] [nM]","GI50 (HCT-116 cells; HCT-116, read-out: 3D HCT116 pGI50 (converted)) [nM]",GI50 (WiDr cells; WiDr) [nM],"IC50 ([1]; HCT-116, 2 h) [nM]",solubility thermodynamic at 24 h (FeSSIF solubility assay; read-out: Sol (FESSIF)) [µg/mL],FESSIF Sol (FeSSIF solubility assay; 24 h) [mg/L],"pERK HCT116 (2 hr) Abs pIC50 ([1]; HCT116 cells, 2 hr, Abs)","IC50 ([1]; HCT-116, HCT116 cells, 2 hr, absolute IC50) [nM]"
"CCn1nc(C)cc1-c1c[nH]c(C2COc3ccc(Oc4ccnc5c4CCC(=O)N5)cc3C2)n1 (centres unmarked) [Compound 124, 5-[3-[4-(2-ethyl-5-methyl-pyrazol-3-yl)-1H-imidazol-2-yl]chroman-6-yl]oxy-3,4-dihydro-1H-1,8-naphthyridin-2-one]",3,724,1450,347,–,–,–,–,–,–,–
"O=C(Nc1nccc(Oc2ccc3c(c2)CC(c2nc(-c4ccccc4)c[nH]2)CO3)n1)C1CC1 (centres unmarked) [Compound 148, N-[4-[3-(4-phenyl-1H-imidazol-2-yl)chroman-6-yl]oxypyrimidin-2-yl]cyclopropanecarboxamide]",104,490,1200,302,–,–,–,–,–,–,–
O=C(CN1CCOCC1)Nc1cc(Oc2ccc3c(c2)CC(c2nc(-c4ccccc4)c[nH]2)CO3)ccn1 (centres unmarked) [Compound 149],200,851,2240,316,–,–,–,–,–,–,–
"CC(=O)Nc1cc(Oc2ccc3c(c2)CC(c2nc(-c4ccccc4)c[nH]2)CO3)ccn1 (centres unmarked) [Compound 156, N-[4-[3-(4-phenyl-1H-imidazol-2-yl)chroman-6-yl]oxy-2-pyridyl]acetamide]",296,89.1,269,42.7,–,–,–,–,–,–,–
"CN1CCN(CC(=O)Nc2cc(Oc3ccc4c(c3)CC(c3nc(-c5ccccc5)c[nH]3)CO4)ccn2)CC1 (centres unmarked) [Compound 146, 2-(4-methylpiperazin-1-yl)-N-[4-[3-(4-phenyl-1H-imidazol-2-yl)chroman-6-yl]oxy-2-pyridyl]acetamide]",404,380,813,178,–,–,–,–,–,–,–
"O=C1CCc2c(Oc3ccc4c(c3)CC(c3nc(C5CCOCC5)c[nH]3)CO4)ccnc2N1 (centres unmarked) [Compound 132, 5-[3-(4-tetrahydropyran-4-yl-1H-imidazol-2-yl)chroman-6-yl]oxy-3,4-dihydro-1H-1,8-naphthyridin-2-one]",41.9,661,1150,347,–,–,–,–,–,–,–
"O=C1CCc2c(Oc3ccc4c(c3)CC(c3nc(-c5cncc(C(F)(F)F)c5)c[nH]3)CO4)ccnc2N1 (centres unmarked) [Compound 103, 5-[3-[4-[5-(trifluoromethyl)-3-pyridyl]-1H-imidazol-2-yl]chroman-6-yl]oxy-3,4-dihydro-1H-1,8-naphthyridin-2-one]",5.2,288,537,240,–,–,–,–,–,–,–
"Cc1c[nH]c(-c2cc(Oc3ccc4c(c3)CC(c3nc(-c5ccccc5)c[nH]3)CO4)ccn2)n1 (centres unmarked) [Compound 143, 2-(4-methyl-1H-imidazol-2-yl)-4-[3-(4-phenyl-1H-imidazol-2-yl)chroman-6-yl]oxy-pyridine]",44.7,741,1510,309,–,–,–,–,–,–,–
"COc1csc(-c2c[nH]c(C3COc4ccc(Oc5ccnc6c5CCC(=O)N6)cc4C3)n2)c1 (centres unmarked) [Compound 122, 5-[3-[5-(4-methoxy-2-thienyl)-1H-imidazol-2-yl]chroman-6-yl]oxy-3,4-dihydro-1H-1,8-naphthyridin-2-one]",124,182,513,132,–,–,–,–,–,–,–
"CC(C)(C)CCc1c[nH]c(C2COc3ccc(Oc4ccnc5c4CCC(=O)N5)cc3C2)n1 (centres unmarked) [Compound 115, 5-[3-[4-(3,3-dimethylbutyl)-1H-imidazol-2-yl]chroman-6-yl]oxy-3,4-dihydro-1H-1,8-naphthyridin-2-one]",129,67.6,38,45.7,–,–,–,–,–,–,–
Cc1ccc(-c2c[nH]c(C3COc4ccc(Oc5ccnc6c5CCC(=O)N6)cc4C3)n2)s1 (centres unmarked) [Compound 110],8.5,70.8,200,89.1,–,–,–,–,–,–,–
"O=C(Nc1cc(Oc2ccc3c(c2)CC(c2nc(-c4ccccc4)c[nH]2)CO3)ncn1)C1CC1 (centres unmarked) [Compound 151, N-[6-[3-(4-phenyl-1H-imidazol-2-yl)chroman-6-yl]oxypyrimidin-4-yl]cyclopropanecarboxamide]",86.6,–,–,–,380,1150,178,–,–,–,–
"Cn1nc(C2CC2)cc1-c1c[nH]c(C2COc3ccc(Oc4ccnc5c4CCC(=O)N5)cc3C2)n1 (centres unmarked) [Compound 125, 5-[3-[4-(5-cyclopropyl-2-methyl-pyrazol-3-yl)-1H-imidazol-2-yl]chroman-6-yl]oxy-3,4-dihydro-1H-1,8-naphthyridin-2-one]",22,1120,15100,355,–,–,–,–,–,–,–
"O=C1CCc2c(Oc3ccc4c(c3)CC(c3nc(-c5ccnc(C(F)F)c5)c[nH]3)CO4)ccnc2N1 (centres unmarked) [Compound 101, 5-[3-[4-[2-(difluoromethyl)-4-pyridyl]-1H-imidazol-2-yl]chroman-6-yl]oxy-3,4-dihydro-1H-1,8-naphthyridin-2-one]",5.7,85.1,309,132,–,–,–,–,–,–,–
"O=C(Nc1cc(Oc2ccc3c(c2)CC(c2nc(-c4ccccc4)c[nH]2)CO3)ccn1)C1CC1(F)F (centres unmarked) [Compound 137, 2,2-difluoro-N-[4-[3-(4-phenyl-1H-imidazol-2-yl)chroman-6-yl]oxy-2-pyridyl]cyclopropanecarboxamide]",73.9,70.8,126,35.5,–,–,–,–,–,–,–
O=C(Cn1cncn1)Nc1cc(Oc2ccc3c(c2)CC(c2nc(-c4ccccc4)c[nH]2)CO3)ccn1 (centres unmarked) [Compound 154],171,61.7,661,28.2,–,–,–,–,–,–,–
"O=C1CCc2c(Oc3ccc4c(c3)CC(c3nc(-c5ccnc(C(F)(F)F)c5)c[nH]3)CO4)ccnc2N1 (centres unmarked) [Compound 8, 5-[3-[4-[2-(trifluoromethyl)-4-pyridyl]-1H-imidazol-2-yl]chroman-6-yl]oxy-3,4-dihydro-1H-1,8-naphthyridin-2-one]",–,138,191,–,–,–,–,18.5,18.5,6.76,174
O=C(Nc1cc(Oc2ccc3c(c2)CC(c2nc(-c4ccccc4)c[nH]2)CO3)ccn1)C1CC1 (racemic) [Compound 136],17.1,47.9,170,27.5,–,–,–,–,–,–,–
CCc1cc(-c2c[nH]c(C3COc4ccc(Oc5ccnc6c5CCC(=O)N6)cc4C3)n2)n(C)n1 (centres unmarked) [Compound 111],70,316,1020,219,–,–,–,–,–,–,–
"O=C(Nc1cc(Oc2ccc3c(c2)CC(c2nc(-c4ccc(F)cc4)c[nH]2)CO3)ccn1)C1CC1 (centres unmarked) [Compound 155, N-[4-[3-[4-(4-fluorophenyl)-1H-imidazol-2-yl]chroman-6-yl]oxy-2-pyridyl]cyclopropanecarboxamide]",124,100,631,60.3,–,–,–,–,–,–,–
"O=C1CCc2c(Oc3ccc4c(c3)CC(c3nc(-c5cncc(C(F)F)c5)c[nH]3)CO4)ccnc2N1 (centres unmarked) [Compound 105, 5-[3-[4-[5-(difluoromethyl)-3-pyridyl]-1H-imidazol-2-yl]chroman-6-yl]oxy-3,4-dihydro-1H-1,8-naphthyridin-2-one]",8.6,245,603,178,–,–,–,–,–,–,–
